Laboratory results: US20170247366A1, “SUBSTITUTED 4-ALKOXYPICOLINAMIDE ANALOGS AS MGLUR5 NEGATIVE ALLOSTERIC MODULATORS AND METHODS OF MAKING AND USING THE SAME” (VANDERBILT UNIVERSITY, priority 2014, published 2017)

Target: T1, rat mGluR5 (Rattus norvegicus, UniProt P31424)
T1 construct: expressed in transfected cells
Assay: mGluR5 calcium flux assay in HEK 293A cells, negative allosteric modulation of glutamate EC80 response
Type: cell-based
Conditions: HEK cells transfected with rat mGluR5; glutamate EC80; ± is standard error of at least three experiments
Experimental: HEK 293A cells stably expressing either rat or human mGluR5 were plated in black-walled, clear-bottomed, poly-D-lysine coated 384-well plates in 20 μL of assay medium (DMEM containing 10% dialyzed FBS, 20 mM HEPES, 100 units/mL penicillin/streptomycin plus 250 ng/mL Fungizone, and 1 mM sodium pyruvate) at a density of 20K cells/well. The cells were grown overnight at 37° C. in the presence of 5% CO2. The next day, medium was removed and the cells incubated with 20 μL of 2.3 µM Fluo-4, AM prepared as a 2.3 mM stock in DMSO and mixed in a 1:1 ratio with 10% (w/v) pluronic acid F-127 and diluted in assay buffer (Hank's balanced salt solution, 20 mM HEPES, and 2.5 mM probenecid) for 45 minutes at 37° C. Dye was removed, 20 μL of assay buffer was added, and the plate was incubated for 5 minutes at room temperature.
Ca^2+ flux was measured using the Functional Drug Screening System (FDSS7000, Hamamatsu, Japan). After establishment of a fluorescence baseline for about 3 seconds, the compounds of the present invention were added to the cells, and the response in cells was measured. 2.3 minutes later an EC20 concentration of the mGluR5 receptor agonist glutamate was added to the cells, and the response of the cells was measured for 1.9 minutes; an EC80 concentration of agonist was added and readings taken for an additional 1.7 minutes. All test compounds were dissolved and diluted to a concentration of 10 mM in 100% DMSO. Compounds were then serially diluted 1:3 in DMSO into 10 point concentration response curves, transferred to daughter plates, and further diluted into assay buffer to a 2× stock. Calcium fluorescence measures were recorded as fold over basal fluorescence; raw data was then normalized to the maximal response to glutamate. Antagonism of the agonist response of the mGluR5 receptor in the present invention was observed as a decrease in response to nearly maximal concentrations of glutamate in the presence of compound compared to the response to glutamate in the absence of compound.
The raw data file containing all time points was used as the data source in the analysis template. This was saved by the FDSS as a tab-delimited text file. Data were normalized using a static ratio function (F/F0) for each measurement of the total 360 values per well divided by each well's initial value. Data were then reduced to peak amplitudes (Max−Initial Min) using a time range that starts approximately 3 seconds prior to the glutamate EC20/EC80 addition and continues for approximately 90-120 seconds. This is sufficient time to capture the peak amplitude of the cellular calcium response. Individual amplitudes were expressed as % EMax by multiplying each amplitude by 100 and then dividing the product by the mean of the amplitudes derived from the glutamate ECMax-treated wells. IC50 values for test compounds were generated by fitting the normalized values versus the log of the test compound concentration (in mol/L) using a 4 parameter logistic equation where none of the parameters were fixed. Each of the three values collected at each concentration of test compound were weighted evenly.
For NAMs with a CRC that plateaus above 10% Glu Max, the IC50 values are reported, the compound is designated a “partial NAM” and the % Glu Max is reported. […] Compounds without measurable activity are designated as “>30,000 nM” since the top concentration of compound tested in the assay is 30 µM. Exemplary data are provided in Tables 1 and 2 below.
Table 1 below lists specific compounds, experimentally determined molecular mass, and mGluR5 activity determined in a cell-based assay. The mGluR5 activity was determined using the metabotropic glutamate receptor activity assays in human embryonic kidney cells as described herein, wherein the human embryonic kidney cells were transfected with rat mGluR5. The mGluR5 activity data for some compounds are shown as the average of at least three experiments with the standard error in these cases. […]

T1 sequence (P31424 21-1203): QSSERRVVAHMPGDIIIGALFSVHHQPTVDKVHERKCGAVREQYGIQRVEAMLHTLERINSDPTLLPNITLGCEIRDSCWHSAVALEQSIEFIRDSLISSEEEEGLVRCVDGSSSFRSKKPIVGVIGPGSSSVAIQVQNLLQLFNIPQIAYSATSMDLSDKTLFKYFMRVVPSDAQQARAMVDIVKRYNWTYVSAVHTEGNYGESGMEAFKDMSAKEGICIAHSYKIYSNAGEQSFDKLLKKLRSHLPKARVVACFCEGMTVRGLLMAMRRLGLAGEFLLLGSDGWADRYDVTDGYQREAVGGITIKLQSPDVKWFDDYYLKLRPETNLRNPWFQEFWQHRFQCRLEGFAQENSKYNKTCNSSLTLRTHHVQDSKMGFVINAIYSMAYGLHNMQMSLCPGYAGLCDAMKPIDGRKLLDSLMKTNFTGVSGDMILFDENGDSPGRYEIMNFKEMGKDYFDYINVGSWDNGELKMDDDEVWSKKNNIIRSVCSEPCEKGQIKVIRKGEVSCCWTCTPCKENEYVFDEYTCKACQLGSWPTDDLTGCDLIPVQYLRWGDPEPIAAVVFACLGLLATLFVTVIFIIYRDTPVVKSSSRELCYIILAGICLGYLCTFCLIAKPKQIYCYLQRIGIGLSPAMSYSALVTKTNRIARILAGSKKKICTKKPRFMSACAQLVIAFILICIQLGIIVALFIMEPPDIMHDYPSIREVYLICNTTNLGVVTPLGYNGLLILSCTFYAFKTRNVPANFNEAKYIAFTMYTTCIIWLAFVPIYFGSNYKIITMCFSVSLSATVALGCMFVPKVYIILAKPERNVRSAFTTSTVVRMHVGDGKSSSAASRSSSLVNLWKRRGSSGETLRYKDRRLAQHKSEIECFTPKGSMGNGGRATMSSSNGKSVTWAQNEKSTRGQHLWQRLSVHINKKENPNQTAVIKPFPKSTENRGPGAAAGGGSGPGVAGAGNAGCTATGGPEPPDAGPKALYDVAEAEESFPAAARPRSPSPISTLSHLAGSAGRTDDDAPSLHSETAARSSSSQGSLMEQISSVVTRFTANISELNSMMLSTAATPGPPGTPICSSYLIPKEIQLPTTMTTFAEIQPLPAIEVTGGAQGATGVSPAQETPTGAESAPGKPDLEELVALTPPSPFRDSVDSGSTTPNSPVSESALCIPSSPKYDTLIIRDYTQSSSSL

Structure (SMILES) | IC50
Cc1cc(OC2CCCC2)cc(C(=O)Nc2ccccn2)n1 | 182 nM
Cc1cc(OC2CCCC2)cc(C(=O)Nc2nc(C)cs2)n1 | 149 nM
Cc1cc(O[C@@H]2CCOC2)cc(C(=O)Nc2ccc(F)cn2)n1 | 41 ± 3 nM
Cc1cc(OC2CCC2)cc(C(=O)Nc2ccc(F)cn2)n1 | 182 nM
Cc1cc(OC2COC2)cc(C(=O)Nc2ccccn2)n1 | 66 nM
Cc1cc(OC2COC2)cc(C(=O)Nc2nc(C)cs2)n1 | 70 ± 10 nM
Cc1cc(OC2CCCC2)cc(C(=O)Nc2ccc(F)cn2)n1 | 3660 nM
Cc1cc(OC[C@@H]2CCOC2)cc(C(=O)Nc2ccc(F)cn2)n1 | 469 nM
Cc1cc(OC[C@H]2CCOC2)cc(C(=O)Nc2ccccn2)n1 | 972 nM
Cc1cc(OC[C@H]2CCOC2)cc(C(=O)Nc2nc(C)cs2)n1 | 364 nM
COCCOc1cc(C)nc(C(=O)Nc2ccc(F)cn2)c1 | 527 nM
Cc1cccc(NC(=O)c2cc(OC3COC3)cc(C)n2)n1 | 59 nM
COc1cccc(NC(=O)c2cc(OC3COC3)cc(C)n2)n1 | 1050 nM
Cc1cc(OC2COC2)cc(C(=O)Nc2cccc(Cl)n2)n1 | 162 nM
COc1ccc(NC(=O)c2cc(OC3COC3)cc(C)n2)nc1 | 1390 nM
Cc1cc(OC2COC2)cc(C(=O)Nc2ccc(Cl)cn2)n1 | 1530 nM
Cc1cc(OC2CC3(COC3)C2)cc(C(=O)Nc2ccccn2)n1 | 1680 nM
Cc1cc(OC2CC3(COC3)C2)cc(C(=O)Nc2nc(C)cs2)n1 | 433 nM
Cc1cc(OCC2COCCO2)cc(C(=O)Nc2ccc(F)cn2)n1 (stereo not shown) | 7680 nM
Cc1cc(OC2CCSC2)cc(C(=O)Nc2ccccn2)n1 (stereo not shown) | 39 nM
Cc1cc(OC2CCSC2)cc(C(=O)Nc2nc(C)cs2)n1 (stereo not shown) | 77 nM
Cc1ccc(NC(=O)c2cc(OC3COC3)cc(C)n2)nc1 | 1480 nM

Structure (SMILES) | IC50
Cc1cc(OC2CC3(COC3)C2)cc(C(=O)Nc2ccc(F)cn2)n1 | 3710 nM
Cc1cc(OCC2COCCO2)cc(C(=O)Nc2ccccn2)n1 (stereo not shown) | 1780 nM
Cc1cc(OCC2COCCO2)cc(C(=O)Nc2nc(C)cs2)n1 (stereo not shown) | 616 nM
Cc1cc(OC2CCSC2)cc(C(=O)Nc2ccc(F)cn2)n1 (stereo not shown) | 75 nM
Cc1cc(OC2(C)COC2)cc(C(=O)Nc2ccc(F)cn2)n1 | 863 nM
Cc1cc(O[C@H]2CO[C@H](C)C2)cc(C(=O)Nc2ccc(F)cn2)n1 | 175 ± 21 nM
Cc1cc(O[C@H]2CO[C@@H](C)C2)cc(C(=O)Nc2ccc(F)cn2)n1 | 4470 ± 260 nM
Cc1cc(O[C@H]2CO[C@H](C)C2)cc(C(=O)Nc2nc(C)cs2)n1 | 81 ± 13 nM
Cc1cc(OCC2CCOCC2)cc(C(=O)Nc2ccccn2)n1 | 1460 nM
Cc1cc(OCC2CCOCC2)cc(C(=O)Nc2nc(C)cs2)n1 | 610 nM
Cc1cc(OCC2CCCCO2)cc(C(=O)Nc2ccc(F)cn2)n1 (stereo not shown) | ≥ 10000 nM
Cc1cc(OC2CCS(=O)(=O)C2)cc(C(=O)Nc2ccc(F)cn2)n1 (stereo not shown) | 634 nM
Cc1cc(O[C@H]2CO[C@@H](C)C2)cc(C(=O)Nc2nc(C)cs2)n1 | 684 ± 107 nM
Cc1cc(OCC2CCOCC2)cc(C(=O)Nc2ccc(F)cn2)n1 | 5720 nM
Cc1cc(OCC2CCCCO2)cc(C(=O)Nc2ccccn2)n1 (stereo not shown) | 2970 nM
Cc1cc(OCC2CCCCO2)cc(C(=O)Nc2nc(C)cs2)n1 (stereo not shown) | 1920 nM
CC(=O)N1CC(Oc2cc(C)nc(C(=O)Nc3ccc(F)cn3)c2)C1 | 756 ± 130 nM
Cc1cc(OC2CN(S(C)(=O)=O)C2)cc(C(=O)Nc2ccc(F)cn2)n1 | 1310 nM
CCOCCOc1cc(C)nc(C(=O)Nc2ccccn2)c1 | 842 nM
CCOCCOc1cc(C)nc(C(=O)Nc2ccc(F)cn2)c1 | 2100 nM
COCCOCCOc1cc(C)nc(C(=O)Nc2ccccn2)c1 | 2540 nM
COCCOCCOc1cc(C)nc(C(=O)Nc2nc(C)cs2)c1 | 954 nM

Structure (SMILES) | IC50
COCCCOc1cc(C)nc(C(=O)Nc2ccc(F)cn2)c1 | 2630 nM
COC[C@H](C)Oc1cc(C)nc(C(=O)Nc2ccccn2)c1 | 2720 nM
COC[C@H](C)Oc1cc(C)nc(C(=O)Nc2nc(C)cs2)c1 | 932 nM
COC[C@@H](C)Oc1cc(C)nc(C(=O)Nc2ccc(F)cn2)c1 | 9100 nM
CCOCCOc1cc(C)nc(C(=O)Nc2nc(C)cs2)c1 | 364 nM
COCCOCCOc1cc(C)nc(C(=O)Nc2ccc(F)cn2)c1 | 6930 nM
COCCCOc1cc(C)nc(C(=O)Nc2ccccn2)c1 | 844 nM
COCCCOc1cc(C)nc(C(=O)Nc2nc(C)cs2)c1 | 506 nM
COC[C@H](C)Oc1cc(C)nc(C(=O)Nc2ccc(F)cn2)c1 | 7610 nM
COC[C@@H](C)Oc1cc(C)nc(C(=O)Nc2ccccn2)c1 | 2130 nM
COC[C@@H](C)Oc1cc(C)nc(C(=O)Nc2nc(C)cs2)c1 | 1030 nM
CO[C@H](C)COc1cc(C)nc(C(=O)Nc2ccccn2)c1 | 194 nM
CO[C@H](C)COc1cc(C)nc(C(=O)Nc2nc(C)cs2)c1 | 145 nM
CO[C@@H](C)COc1cc(C)nc(C(=O)Nc2ccc(F)cn2)c1 | 4930 nM
Cc1cc(O[C@@H]2CCOC2)cc(C(=O)Nc2nc(CF)cs2)n1 | 71 nM
Cc1cc(O[C@@H]2CCOC2)cc(C(=O)Nc2nc(C(F)F)cs2)n1 | 247 nM
Cc1cc(O[C@@H]2CCOC2)cc(C(=O)Nc2nc(C(F)(F)F)cs2)n1 | 2040 nM
Cc1cc(O[C@@H]2CCOC2)cc(C(=O)Nc2nc(C3CC3)cs2)n1 | 153 nM
CO[C@H](C)COc1cc(C)nc(C(=O)Nc2ccc(F)cn2)c1 | 718 nM
CO[C@@H](C)COc1cc(C)nc(C(=O)Nc2ccccn2)c1 | 2210 nM
CO[C@@H](C)COc1cc(C)nc(C(=O)Nc2nc(C)cs2)c1 | 1050 nM
Cc1cc(O[C@H]2CO[C@H](C)C2)cc(C(=O)Nc2nc(CF)cs2)n1 | 180 nM

Structure (SMILES) | IC50
Cc1cc(O[C@H]2CO[C@H](C)C2)cc(C(=O)Nc2nc(C(F)F)cs2)n1 | 902 nM
Cc1cc(O[C@H]2CO[C@H](C)C2)cc(C(=O)Nc2nc(C(F)(F)F)cs2)n1 | 5200 nM
Cc1cc(O[C@H]2CO[C@H](C)C2)cc(C(=O)Nc2nc(C3CC3)cs2)n1 | 899 nM
Cc1cc(O[C@@H]2CCOC2)cc(C(=O)Nc2nc(C)c(F)s2)n1 | 171 nM
Cc1cc(OC2CSC2)cc(C(=O)Nc2ccc(F)cn2)n1 | 37 nM
Cc1cc(OC2C[S+]([O-])C2)cc(C(=O)Nc2ccc(F)cn2)n1 (stereo not shown) | 533 nM
Cc1cc(OC2CS(=O)(=O)C2)cc(C(=O)Nc2ccc(F)cn2)n1 | 742 nM
CC(=O)N1CC(Oc2cc(C)nc(C(=O)Nc3nc(C)cs3)c2)C1 | 388 nM
Cc1cc(OC2CN(C(=O)CC(C)C)C2)cc(C(=O)Nc2nc(C)cs2)n1 | 1670 nM
Cc1cc(O[C@H]2CO[C@H](C)C2)cc(C(=O)Nc2nc(C)c(F)s2)n1 | 1290 nM
Cc1cc(OC2CSC2)cc(C(=O)Nc2nc(C)cs2)n1 | 31 nM
Cc1cc(OC2C[S+]([O-])C2)cc(C(=O)Nc2nc(C)cs2)n1 (stereo not shown) | 180 nM
Cc1cc(OC2CS(=O)(=O)C2)cc(C(=O)Nc2nc(C)cs2)n1 | 392 nM
CCC(=O)N1CC(Oc2cc(C)nc(C(=O)Nc3nc(C)cs3)c2)C1 | 611 nM
CCC(=O)N1CC(Oc2cc(C)nc(C(=O)Nc3ccc(F)cn3)c2)C1 | 3400 nM
Cc1cc(OC2CN(C(=O)CC(C)C)C2)cc(C(=O)Nc2ccc(F)cn2)n1 | 4330 nM
CCOC(=O)N1CC(Oc2cc(C)nc(C(=O)Nc3nc(C)cs3)c2)C1 | 862 nM
COC(=O)N1CC(Oc2cc(C)nc(C(=O)Nc3ccc(F)cn3)c2)C1 | 1570 nM
Cc1cc(OC2CN(C(=O)OC(C)C)C2)cc(C(=O)Nc2ccc(F)cn2)n1 | 4100 nM
CCCCOC(=O)N1CC(Oc2cc(C)nc(C(=O)Nc3ccc(F)cn3)c2)C1 | 11200 nM

Same assay, conditions: rat mGluR5; CRC plateaus above 10% Glu Max

Structure (SMILES) | NAM designation
Cc1cc(OC2CN(C(=O)OC(C)C)C2)cc(C(=O)Nc2ccc(F)cn2)n1 | Partial NAM

Same assay, conditions: rat mGluR5; response in presence of compound as percentage of maximal glutamate response; CRC plateaus above 10%

Structure (SMILES) | % Glu Max (partial NAM, plateau of CRC)
Cc1cc(OC2CN(C(=O)OC(C)C)C2)cc(C(=O)Nc2ccc(F)cn2)n1 | 42%
